These results are taken from patent US10633448B2, “IGF-1R antibody-drug-conjugate and its use for the treatment of cancer” (PIERRE FABRE MEDICAMENT, priority 2014, dated 2020).

Assay [1] relates to lysosome functions. In words: Inhibition of Ab degradation with lysosome inhibitor. Type of assay: cell-based. Particulars: cells with 10 μg/ml Ab, 2 h at 37° C. The procedure:
In order to confirm that antibodies reached the lysosome were they are degraded, cells were treated or not with bafilomycine A1, a potent inhibitor of lysosome functions. Cells were then incubated with 10 μg/ml of Ab to be tested at 4° C., washed and incubated for 2 h at 37° C. The internalized Ab was detected after cell permeabilisation using a secondary anti-mouse IgG-Alexa 488 Ab.

The test system of assay [2] is MDA-MB-231 (breast adenocarcinoma) cells. In words: ATPlite antiproliferative assay, MDA-MB-231. Format: cell-based, human. Particulars: 72 h drug treatment. The procedure:
A549 (Non Small Cell Lung Cancer—ATCC CCL-185) and MDA-MB-231 (breast adenocarcinoma—ATCC HTB-26) cells were cultured in Minimum Essential Medium Eagle (MEM) with 5% fetal calf serum (FCS) and Dulbecco's modified Eagle Medium (DMEM) with 10% FCS respectively. MCF7 (breast ductal carcinoma—ATCC HTB-22) and SN-12C (kidney carcinoma—ATCC) cells were maintained in RPMI1640 medium (without phenol red for MCF7 cells) containing 10% FCS. All the media were supplemented with fungizone (1.25 μg/mL) and penicillin-streptomycin (100 U/100 μg/mL). Cells were cultured under standard conditions in an incubator at 37° C., 5% CO2 and 95% atmospheric humidity.
Selected drugs were investigated for their antiproliferative activity using an ATPlite proliferation assay (Perkin Elmer, Villebon sur Yvette, France) on a comprehensive panel of 4 cell lines. […] On day 4, cell viability was evaluated by dosing the ATP released by viable cells. The number of viable cells was analyzed in comparison with the number of solvent treated cells. The EC50 values were determined with curve fitting analysis (non linear regression model with a sigmoidal dose response, variable hill slope coefficient), performed with the algorithm provided by the GraphPad Software (GraphPad Software Inc., CA, USA).
(ATP-based viability assays read luminescence as a measure of living cells.)

Take `CO/C1=C\C(C)=C\[C@@H](C)[C@@H](O)[C@@H](C)C/C(C)=C/C=C/[C@H](OC)[C@@H]([C@@H](C)[C@@H](O)[C@H](C)[C@@]2(O)C[C@@H](O)[C@H](C)[C@@H](C(C)C)O2)OC1=O` [bafilomycine A1]: in assay [1], the “degradation of intracellular Ab” value is on record as “prevented the degradation of intracellular Ab”. In the case of “methyl (S)-2-((2R,3R)-3-((S)-1-((3R,4S,5S)-4-((S)-2-((S)-2-((3-aminobenzyl)(methyl)amino)-3-methylbutanamido)-N,3-dimethylbutanamido)-3-methoxy-5-methylheptanoyl)pyrrolidin-2-yl)-3-methoxy-2-methylpropanamido)-3-phenylpropanoate, trifluoroacetic acid [Compound 15]”, the midpoint of the response in assay [2], the EC50, lay at 0.17 nM.

Broadly, the EC50 is the midpoint of the concentration-response curve. Low values mean higher potency in that assay, high ones lower potency in that assay.
